How the values were obtained:
C2C12 cells = experiment: Cell chirality (alignment) on micropatterned rings, drug treatment, C2C12; format: cell-based, mouse; settings: for CCW: counter-clockwise alignment / CW: clockwise alignment / N/S: not significantly biased to CW or CCW: C2C12 on ring patterns, count of rings; for effect on chirality of C2C12 cells: low concentrations of the actin treadmilling inhibitors; for effect on left-right asymmetry / effect on cell chirality: C2C12; for effect on left-right asymmetry: drugs that affect the actomyosin motor, 0.2-10 mM Y-27632, 1-20 mM ML-7, 0.5-10 mM Blebbistatin; for effect on cell chirality: inhibitors of tubulin dynamics at concentrations below those resulting in cell apoptosis
Protocol: (§1) Cells were maintained in tissue flasks with culture media specified in TABLE 2. After reaching 70% confluency, cells were trypsinized and seeded onto protein-coated patterned surfaces. Once the cells attached, extra cells were washed off with fresh medium. At this time drugs were added into the culture medium if necessary. Phase contrast images were taken after overnight incubation at 37° C. and 5% CO2 when cells reached confluency on the ring patterns.
(§2) To examine the role of actin in left-right (LR) asymmetry, cells were tested with 20-500 nM Latrunculin A, 0.05-1.0 μg/ml Cytochalasin D, and 1-100 nM Jasplakinolide. Latrunculin A inhibits actin polymerization by forming a 1:1 molar complex with G-actin, thereby inhibiting its ability to polymerize into F-actin (M. Coue, S. L. Brenner, I. Spector, E. D. Korn, FEBS Lett 213, 316 (Mar. 23, 1987)). Cytochalasin D inhibits actin polymerization by binding to the growing ends of F-actin chains and thus preventing the attachment and addition of G-actin monomers (J. A. Cooper, J Cell Biol 105, 1473 (October, 1987)). Jasplakinolide is known to bind to and stabilize actin filaments in vitro (M. R. Bubb, I. Spector, B. B. Beyer, K. M. Fosen, J Biol Chem 275, 5163 (Feb. 18, 2000)).
(§3) To examine the role of microtubules in LR asymmetry, 0.2-2 μM Nocodazole, and 0.3-30 nM Taxol were used. Nocodazole suppresses microtubule dynamics by destabilizing and disassembling microtubules (J. A. Cooper, J Cell Biol 105, 1473 (October, 1987)). Taxol inhibits the microtubule depolymerization and stabilizes microtubules (W. B. Derry, L. Wilson, M. A. Jordan, Biochemistry 34, 2203 (Feb. 21, 1995)).
To examine the role of the actomyosin motor, cells were tested with […], […], and 0.5-10 […]. Y-27632 works as a selective inhibitor to prevent the phosphorylation of the myosin regulatory light chain (T. Ishizaki et al., Mol Pharmacol 57, 976 (May, 2000)). ML-7 acts as a selective inhibitor of the myosin light chain kinase (M. Isemura, T. Mita, K. Satoh, K. Narumi, M. Motomiya, Cell Biol Int Rep 15, 965 (October, 1991)). Blebbistatin forms a low actin affinity complex through binding to myosin heads, causing the inhibition of nonmuscle myosin II ATPase activity (M. Kovacs, J. Toth, C. Hetenyi, A. Malnasi-Csizmadia, J. R. Sellers, J Biol Chem 279, 35557 (Aug. 20, 2004)).
(§4) High-resolution phase contrast images of live patterned cells were taken at a resolution of ˜0.645 μm/pixel, and analyzed using a custom-written code in MatLab (MathWorks, Natick, Mass.), based on the automated detection of intensity gradient and circular statistics (W. J. Karlon et al., Ann Biomed Eng 27, 712 (November-December, 1999)). In this algorithm, the intensity gradient was determined pixel by pixel with a Gaussian differential filter. In each sub-region of the image, the dominant local direction was determined using an accumulator scheme, in which the orientation of each pixel follows a von Mises distribution, a circular analogue of the linear normal distribution. Subsequently, the orientation in each sub-region was converted into an angle bias based on its deviation from the circumferential direction (see e.g., FIG. 2C). Mean angle and standard deviation of LR asymmetry were calculated for all sub-regions, using circular statistics (N. I. Fish, Statistical Analysis of Circular Data. (Cambridge University Press, Cambridge, UK, 1993)). […] The sub-region size was therefore set to 20 by 20 pixels (i.e., 13 by 13 μm).
(§5) Cell chirality on ring patterns (i.e., clockwise or counterclockwise alignment) was determined from calculated biased angles in local regions with one sample test for the mean angle, analogous to the one sample t-test in linear statistics (N. I. Fish, Statistical Analysis of Circular Data. (Cambridge University Press, Cambridge, UK, 1993)).

hUVEC cells = experiment: Cell chirality (alignment) on micropatterned rings, drug treatment, hUVEC; format: cell-based, human; settings: hUVEC on ring patterns, count of rings
Protocol: as §1, §2, §3, §4, §5

## C/C1=C\[C@H](C)C[C@H](C)OC(=O)C[C@H](c2ccc(O)cc2)NC(=O)[C@@H](Cc2c(Br)[nH]c3ccccc23)N(C)C(=O)[C@H](C)NC(=O)[C@@H](C)C1 [Jasplakinolide]
C2C12 cells; drug 1 nM
  CCW: counter-clockwise alignment: 34
  CW: clockwise alignment: 2
  N/S: not significantly biased to CW or CCW: 10
C2C12 cells; drug 3 nM
  CCW: counter-clockwise alignment: 18
  CW: clockwise alignment: 3
  N/S: not significantly biased to CW or CCW: 4
C2C12 cells; drug 10 nM
  CCW: counter-clockwise alignment: 14
  CW: clockwise alignment: 7
  N/S: not significantly biased to CW or CCW: 5
C2C12 cells; drug 30 nM
  CCW: counter-clockwise alignment: 0
  CW: clockwise alignment: 18
  N/S: not significantly biased to CW or CCW: 4
C2C12 cells; drug 100 nM
  CCW: counter-clockwise alignment: 0
  CW: clockwise alignment: 7
  N/S: not significantly biased to CW or CCW: 9
C2C12 cells
  effect on chirality of C2C12 cells: reversed the chirality of C2C12 cells from CCW into CW
hUVEC cells; drug 1 nM
  CCW: counter-clockwise alignment: 1
  CW: clockwise alignment: 32
  N/S: not significantly biased to CW or CCW: 1
hUVEC cells; drug 3 nM
  CCW: counter-clockwise alignment: 2
  CW: clockwise alignment: 22
  N/S: not significantly biased to CW or CCW: 5
hUVEC cells; drug 10 nM
  CCW: counter-clockwise alignment: 5
  CW: clockwise alignment: 22
  N/S: not significantly biased to CW or CCW: 10
hUVEC cells; drug 30 nM
  CCW: counter-clockwise alignment: 0
  CW: clockwise alignment: 5
  N/S: not significantly biased to CW or CCW: 4
hUVEC cells; drug 100 nM
  CCW: counter-clockwise alignment: 0
  CW: clockwise alignment: 1
  N/S: not significantly biased to CW or CCW: 5

## C[C@@H](N)[C@H]1CC[C@H](C(=O)Nc2ccncc2)CC1 [Y-27632]
C2C12 cells
  effect on left-right asymmetry: did not affect left-right asymmetry

## CC(=O)O[C@H]1C(=O)[C@@]2(C)[C@H]([C@H](OC(=O)c3ccccc3)[C@]3(O)C[C@H](OC(=O)[C@H](O)[C@@H](NC(=O)c4ccccc4)c4ccccc4)C(C)=C1C3(C)C)[C@]1(OC(C)=O)CO[C@@H]1C[C@@H]2O [Taxol]
C2C12 cells
  effect on cell chirality: did not change cell chirality
C2C12 cells; drug 0.3 nM
  CCW: counter-clockwise alignment: 24
  CW: clockwise alignment: 1
  N/S: not significantly biased to CW or CCW: 3
C2C12 cells; drug 1 nM
  CCW: counter-clockwise alignment: 20
  CW: clockwise alignment: 1
  N/S: not significantly biased to CW or CCW: 6
C2C12 cells; drug 3 nM
  CCW: counter-clockwise alignment: 31
  CW: clockwise alignment: 2
  N/S: not significantly biased to CW or CCW: 9
C2C12 cells; drug 10 nM
  CCW: counter-clockwise alignment: 17
  CW: clockwise alignment: 2
  N/S: not significantly biased to CW or CCW: 8
C2C12 cells; drug 30 nM
  CCW: counter-clockwise alignment: 16
  CW: clockwise alignment: 2
  N/S: not significantly biased to CW or CCW: 13
hUVEC cells; drug 0.3 nM
  CCW: counter-clockwise alignment: 0
  CW: clockwise alignment: 8
  N/S: not significantly biased to CW or CCW: 0
hUVEC cells; drug 1 nM
  CCW: counter-clockwise alignment: 1
  CW: clockwise alignment: 34
  N/S: not significantly biased to CW or CCW: 4
hUVEC cells; drug 3 nM
  CCW: counter-clockwise alignment: 2
  CW: clockwise alignment: 7
  N/S: not significantly biased to CW or CCW: 9
hUVEC cells; drug 10 nM
  CCW: counter-clockwise alignment: 5
  CW: clockwise alignment: 10
  N/S: not significantly biased to CW or CCW: 11
hUVEC cells; drug 30 nM
  CCW: counter-clockwise alignment: 2
  CW: clockwise alignment: 4
  N/S: not significantly biased to CW or CCW: 7

## Cc1ccc2c(c1)C(=O)C1(O)CCN(c3ccccc3)C1=N2 (stereo not shown) [Blebbistatin]
C2C12 cells
  effect on left-right asymmetry: did not affect left-right asymmetry

## O=S(=O)(c1cccc2c(I)cccc12)N1CCCNCC1 [ML-7]
C2C12 cells
  effect on left-right asymmetry: did not affect left-right asymmetry

## C=C1[C@@H](C)[C@H]2[C@H](Cc3ccccc3)NC(=O)[C@]23[C@H](OC(C)=O)/C=C/[C@@](C)(O)C(=O)[C@@H](C)C/C=C/[C@H]3[C@@H]1O [Cytochalasin D]
C2C12 cells; drug 0.05 μg/mL
  CCW: counter-clockwise alignment: 8
  CW: clockwise alignment: 9
  N/S: not significantly biased to CW or CCW: 6
C2C12 cells; drug 0.1 μg/mL
  CCW: counter-clockwise alignment: 3
  CW: clockwise alignment: 7
  N/S: not significantly biased to CW or CCW: 10
C2C12 cells; drug 0.2 μg/mL
  CCW: counter-clockwise alignment: 5
  CW: clockwise alignment: 21
  N/S: not significantly biased to CW or CCW: 23
C2C12 cells; drug 0.5 μg/mL
  CCW: counter-clockwise alignment: 0
  CW: clockwise alignment: 10
  N/S: not significantly biased to CW or CCW: 14
C2C12 cells; drug 1 μg/mL
  CCW: counter-clockwise alignment: 1
  CW: clockwise alignment: 8
  N/S: not significantly biased to CW or CCW: 20
C2C12 cells
  effect on chirality of C2C12 cells: reversed the chirality of C2C12 cells from CCW into CW
hUVEC cells; drug 0.1 μg/mL
  CCW: counter-clockwise alignment: 0
  CW: clockwise alignment: 8
  N/S: not significantly biased to CW or CCW: 12
hUVEC cells; drug 0.2 μg/mL
  CCW: counter-clockwise alignment: 0
  CW: clockwise alignment: 10
  N/S: not significantly biased to CW or CCW: 22
hUVEC cells; drug 0.5 μg/mL
  CCW: counter-clockwise alignment: 1
  CW: clockwise alignment: 0
  N/S: not significantly biased to CW or CCW: 6

## COC(=O)Nc1nc2ccc(C(=O)c3cccs3)cc2[nH]1 [Nocodazole]
C2C12 cells
  effect on cell chirality: did not change cell chirality
C2C12 cells; drug 200 nM
  CCW: counter-clockwise alignment: 57
  CW: clockwise alignment: 0
  N/S: not significantly biased to CW or CCW: 18
C2C12 cells; drug 500 nM
  CCW: counter-clockwise alignment: 35
  CW: clockwise alignment: 0
  N/S: not significantly biased to CW or CCW: 58
C2C12 cells; drug 1 μM
  CCW: counter-clockwise alignment: 18
  CW: clockwise alignment: 0
  N/S: not significantly biased to CW or CCW: 21
C2C12 cells; drug 2 μM
  CCW: counter-clockwise alignment: 1
  CW: clockwise alignment: 0
  N/S: not significantly biased to CW or CCW: 6
hUVEC cells; drug 200 nM
  CCW: counter-clockwise alignment: 3
  CW: clockwise alignment: 25
  N/S: not significantly biased to CW or CCW: 76
hUVEC cells; drug 500 nM
  CCW: counter-clockwise alignment: 2
  CW: clockwise alignment: 14
  N/S: not significantly biased to CW or CCW: 27
hUVEC cells; drug 1 μm
  CCW: counter-clockwise alignment: 0
  CW: clockwise alignment: 3
  N/S: not significantly biased to CW or CCW: 4
hUVEC cells; drug 2 μm
  CCW: counter-clockwise alignment: 0
  CW: clockwise alignment: 1
  N/S: not significantly biased to CW or CCW: 7

Source: patent publication US9958436B2, “Determination of cell chirality” (THE TRUSTEES OF COLUMBIA UNIVERSITY IN THE CITY OF NEW YORK, priority 2011, dated 2018)
